Assay results published in publication PMC4718634, “Murine GPRC6A Mediates Cellular Responses to L-Amino Acids, but Not Osteocalcin Variants” (PLoS ONE, 2016).
“Also recorded” adds a separate entry of the source. Like-named read-outs stand apart in the source and are kept apart here. One block for each compound: values may come before it.

Columns and labels:
[1] = target: T1, mGPRC6A (mouse GPRC6A) (Mus musculus, UniProt Q8K4Z6); test: ERK1/2 phosphorylation, FlpIn-TREx-HEK293-mGPRC6A cells; assay type: cell-based
T1 sequence (Q8K4Z6 21-928): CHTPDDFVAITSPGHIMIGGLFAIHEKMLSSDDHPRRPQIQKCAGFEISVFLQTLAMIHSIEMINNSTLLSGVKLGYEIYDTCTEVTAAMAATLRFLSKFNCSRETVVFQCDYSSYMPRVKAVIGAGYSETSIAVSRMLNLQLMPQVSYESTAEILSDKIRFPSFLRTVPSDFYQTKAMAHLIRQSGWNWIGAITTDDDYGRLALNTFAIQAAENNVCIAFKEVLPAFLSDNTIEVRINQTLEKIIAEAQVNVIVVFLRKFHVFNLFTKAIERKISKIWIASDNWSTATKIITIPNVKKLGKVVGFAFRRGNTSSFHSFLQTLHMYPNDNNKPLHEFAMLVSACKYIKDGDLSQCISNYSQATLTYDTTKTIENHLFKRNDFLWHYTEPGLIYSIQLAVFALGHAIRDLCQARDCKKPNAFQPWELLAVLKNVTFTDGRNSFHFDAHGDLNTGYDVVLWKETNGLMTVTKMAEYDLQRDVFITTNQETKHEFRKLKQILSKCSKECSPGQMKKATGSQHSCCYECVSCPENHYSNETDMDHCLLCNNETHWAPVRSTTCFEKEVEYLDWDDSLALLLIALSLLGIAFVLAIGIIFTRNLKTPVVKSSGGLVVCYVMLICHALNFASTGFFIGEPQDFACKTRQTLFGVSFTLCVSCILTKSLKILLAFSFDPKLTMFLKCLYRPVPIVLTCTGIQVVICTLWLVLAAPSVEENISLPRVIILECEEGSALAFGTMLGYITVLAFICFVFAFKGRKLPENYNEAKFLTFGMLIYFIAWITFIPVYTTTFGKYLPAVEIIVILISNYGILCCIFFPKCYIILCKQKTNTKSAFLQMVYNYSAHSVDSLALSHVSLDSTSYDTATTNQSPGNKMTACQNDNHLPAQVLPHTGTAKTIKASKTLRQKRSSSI
Method: pcDNA 5/FRT/TO constructs were isogenically integrated into a FlpIn-TREx-HEK293 cell line (Life Technologies). FlpIn-TREx-HEK293-mGPRC6A and FlpIn-TREx-HEK293-hGPRC6A cells were then selected using 600 μg/ml hygromycin and 5 μg/ml blasticidin and grown in culture medium consisting of Dulbecco’s Modified Eagle Medium (DMEM), supplemented with 10% (v/v) foetal bovine serum (FBS) at 37°C in 5% CO2 and were sub-cultured in a 1:3 ratio every 3–4 days. Cells were cultured overnight in the presence of 1 μg/ml tetracycline to induce GPRC6A expression. […] 48 h after transfection, cells were selected using 3 μg/ml puromycin and grown as above.
Cells were then stimulated with ligand at various time points and incubated at 37°C in 5% CO2. 10% FBS (v/v) was used as a positive control. The reaction was terminated by removal of compounds and lysis of cells with SureFire lysis buffer (TGR Biosciences). The lysates were then treated as per the SureFire ERK1/2 kit instructions. Plates were incubated in the dark at 37°C for 1 h, then left to equilibrate with the ambient temperature before the fluorescence signal was measured using a Fusion plate reader (PerkinElmer) with standard AlphaScreen settings. Data were normalised to the maximal response elicited by 10% FBS (v/v) at the same time point.

[2] = target: T1, mGPRC6A (mouse GPRC6A); test: Label-free cell impedance (xCELLigence), tetracycline-induced FlpIn-TREx-HEK293-mGPRC6A cells; assay type: cell-based
Method: 2.5 x 10^7 FlpIn-TREx-HEK293-mGPRC6A cells were seeded in a T175 flask and incubated overnight at 37°C in 5% CO2. Cells were then transfected with 35 μg of plasmid DNA (GαqG66D) with Lipofectamine LTX according to manufacturer's instructions, then incubated for 24h at 37°C in 5% CO2. Prior to the experiment, a background reading for each E-plate 96 (Bio-Rad, CA, USA) was measured after addition of 100 μl DMEM + 10% FBS per well. Cells were recovered using Versene and seeded at a 10^5 cells/well density in 200 μl DMEM + 10% FBS (containing 1 μg/ml tetracycline where indicated). Cells were washed 2 x 2 h in HBSS buffer (pH 7.2) containing 20 mM HEPES, 1 mM CaCl2 and 0.1% BSA (w/v) in a total volume of 180 μl. Test compounds (20 μl at 10x final concentration) were added to the plate and cell impedance was monitored for 3 h. Cell index was normalised to the buffer response (minus the baseline response at zero time point).
Concentration-response data were analysed using a three or four parameter logistic function (Motulsky & Christopoulos, 2004) to generate estimates of agonist potency (LogEC50). Data for all HEK293 assays represent the mean ± SEM of at least three independent experiments (except cell impedance, n = 2). For GLP-1 release, the data represent mean ± SEM of three to five independent experiments (except for OCN, wash; n = 2). For insulin release assays, data represent the mean ± SEM of three independent experiments (except for islet studies; n = 2). Insulin release data were normalised to the response to vehicle in either low or high [glucose]. Statistical analysis for GLP-1 release data were performed by one-way ANOVA, followed by Sidak’s multiple comparisons test (treating wash / no wash datasets separately). Statistical analyses for insulin release data were performed by two-way ANOVA (with [glucose] and drug treatment as group variables), followed by Sidak’s multiple comparisons test. Where only high [glucose] groups were evaluated, statistical analysis was by one-way ANOVA followed by Sidak’s multiple comparisons test.

[3] = test system: mC6A; details: cited from earlier work
Excerpt: Supplement pone.0146846.s004.docx, table 1 | column: Functional assay

Compound: NCCC[C@H](N)C(=O)O [L-ornithine]
stimulation of ERK1/2 phosphorylation ([1]; without GαqG66D, L-ornithine 1 mM, OCN variants 40 ng/ml, Fig 3B): Neither L-ornithine (1 mM) nor OCN variants (40 ng/ml) stimulate ERK1/2 phosphorylation; also recorded: no detectable modulation of cAMP accumulation or phosphorylation of ERK1/2 | EC50 ([2]; tetracycline-induced, GαqG66D, xCELLigence, n = 2, read-out: pEC50, cell impedance (converted)): 63.1 µM | cell impedance (cell index) response ([2]; tetracycline-induced, xCELLigence, Fig 4): only mGPRC6A-expressing cells responded to L-ornithine; also recorded: increases cellular impedance only in tetracycline-induced cells | cAMP response ([3]; ref [3] (supplement list)): [^3H]IP turnover - co-transfection with Gαqs5, GαqG66D, Gαq or GαqG66Ds5 enabled response to L-aa but Gαqi, Gαqz, Gαqo did not cAMP – no increase or decrease in response to L-Orn | cAMP response ([3]; ref [13] (supplement list)): no response | pERK response ([3]; ref [13] (supplement list)): response

pERK1/2 response (summary) ([1]; S1 Table): no response | xCELLigence response (summary) ([2]; S1 Table): No response
Compound: OCN: osteoblast-derived peptide, osteocalcin; variant not specified at the place (YLYQWLGAPVPYPDPLEPRREVCELNPDCDELADHIGFQEAYRRFYGPV; UniProt P02818 52-100, looked up)
IP-One HTRF response to EC25 L-Orn + OCN ([3]; + GqG66D, ref [13] (supplement list)): No response | cAMP accumulation response ([3]; ref [5] (supplement list)): cAMP accumulation in response to OCN | IP-One HTRF response ([3]; ref [13] (supplement list)): No response | cAMP response ([3]; ref [13] (supplement list)): no response | pERK response ([3]; ref [13] (supplement list)): No specific response
